Reference: patent US20180184680A1, “LONG-LASTING COOLING FORMULATIONS” (WM. WRIGLEY JR. COMPANY, priority 2015, published 2018)

Columns and labels:
descriptive panel (N=8) = assay: Consumer-Descriptive Analysis panel study of compressed mints; format: in vivo, human
Method: All samples were prepared in a pilot plant under good manufacture practice conditions. Samples made for consumer descriptive analysis passed a metal detector test. One sample of each mint formulation was further evaluated in both Expert Sensory Analysis (ESA) and Descriptive Analysis tests. A Consumer-Descriptive Analysis panel study was conducted. Four mints containing various level of cooling blend were formulated at a pilot plant. During the test, each member of the descriptive panel (N=8) sucked one piece of mint until it completely dissolved. During the mint consumption, panelists evaluated various cooling attributes including oral cool and nasal cool at several specified time points. Flavor and sweetener intensity, bitterness, and off-taste were also evaluated. Panelists continued the evaluation even after mint consumption was complete, for a total of 20 minutes from the beginning of the test.

Subjects = assay: ESA panel evaluation of compressed mints (cooling strength, flavor strength, bitterness/off-taste); format: in vivo, human; details: for upfront cooling intensity: first 3 minutes, 9-point scale, WS-5 500 ppm
Method: All samples were prepared in a pilot plant under good manufacture practice conditions. Samples made for consumer descriptive analysis passed a metal detector test. One sample of each mint formulation was further evaluated in both Expert Sensory Analysis (ESA) and Descriptive Analysis tests.
Compressed mint samples were evaluated for cooling strength, flavor strength and bitterness, or off-taste in a randomized sampling order by a 9-point scale: 0 being the lowest and 9 being the highest. Subjects were allowed to suck the compressed mint (without biting or chewing) until completely dissolved. The coolant attributes were measured at different time points up to 15 minutes.
The level of WS-12 was increased to levels from 250 to 1000 ppm (0.025%-0.1% w/w) and additional ESA evaluations were conducted.

[1] = compressed mint, WS-12 1000 ppm, WS-5 and WS-12 250 ppm of each

Row | Compound | oral cooling (descriptive panel (N=8); after the first 4 minutes, WS-23 0.1%) | oral cooling (descriptive panel (N=8); first 4 minutes, WS-23 0.1%) | cooling duration (Subjects; compressed mint, WS-12 1000 ppm, measured up to 15 minutes) | upfront cooling intensity (Subjects; [1]) | cooling after 6 min (Subjects; compressed mint, compared to mint comprising WS-23 (1000 ppm), WS-12 1000 ppm, WS-5 and WS-12 250 ppm of each) | cooling intensity, flavor intensity or duration of cooling versus the control mints (Subjects; compressed mints, low level of WS-12 (25-100 ppm)) | oral cooling sustained after consumption (descriptive panel (N=8); compressed mint, WS-5) | oral cooling (descriptive panel (N=8); during the 15 minutes, vs control, WS-5 500 ppm, WS-5/WS-12 250/250 ppm)
1 | CNC(=O)C(C)(C(C)C)C(C)C [WS-23, N,2,3-Trimethyl-2-isopropylbutamide, reference compound] | lost cooling strength and became similar to the control | superior oral cooling | – | – | – | – | – | –
2 | COc1ccc(NC(=O)[C@@H]2C[C@H](C)CC[C@H]2C(C)C)cc1 [WS-12, (1R,2S,5R)-N-(4-Methoxyphenyl)-5-methyl-2-(1-methylethyl)cyclohexanecarboxamide] | – | – | > 15 min | very low upfront cooling | significant more cooling | No significant difference | – | –
3 | CCOC(=O)CNC(=O)C1CC(C)CCC1C(C)C (stereo not drawn) [WS-5, N-(Ethoxycarbonylmethyl)-3-p-menthanecarboxamide] | – | – | – | strong cooling intensity upfront | – | – | up to 10 minutes | higher oral cooling
